Measured values reported in PubChem BioAssay AID679 (PCMD, 2007).
Active and inactive are the calls of the source. No rule for the calls is given here.

Molecular target: Coagulation factor XI (Homo sapiens) (UniProt P03951)
Assay: human FXIa inhibitor potency, dose response, biochemical (AID 679)
Settings: purified human factor XIa enzymatic activity assay

Chain of Coagulation factor XI (Homo sapiens) (P03951 19-387 limits assumed): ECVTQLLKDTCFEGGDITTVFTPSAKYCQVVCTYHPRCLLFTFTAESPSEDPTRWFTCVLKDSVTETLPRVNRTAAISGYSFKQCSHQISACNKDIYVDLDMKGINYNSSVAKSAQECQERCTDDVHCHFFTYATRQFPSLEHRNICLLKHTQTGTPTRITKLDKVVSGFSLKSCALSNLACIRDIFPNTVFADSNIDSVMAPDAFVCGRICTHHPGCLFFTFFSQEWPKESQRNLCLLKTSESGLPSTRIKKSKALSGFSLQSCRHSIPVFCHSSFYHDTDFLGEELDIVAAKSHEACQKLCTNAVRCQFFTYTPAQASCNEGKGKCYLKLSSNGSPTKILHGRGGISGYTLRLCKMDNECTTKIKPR
Chain of Coagulation factor XI (Homo sapiens) (P03951 388-625 limits assumed): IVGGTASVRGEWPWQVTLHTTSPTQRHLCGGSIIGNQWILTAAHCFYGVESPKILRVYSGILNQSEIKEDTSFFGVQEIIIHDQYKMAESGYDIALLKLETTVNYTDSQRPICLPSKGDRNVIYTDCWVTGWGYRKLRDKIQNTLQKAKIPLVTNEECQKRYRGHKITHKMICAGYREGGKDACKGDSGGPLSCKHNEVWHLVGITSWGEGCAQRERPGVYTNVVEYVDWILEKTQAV

IC50, inactive:
COC(=O)c1ccc(NC(=O)CC2C(=O)N(c3ccc(C)cc3)C(=O)N2CC(C)C)cc1 (stereo not drawn) > 50 µM
N#Cc1c(N)nc2c3c(sc(=N)c2c1N)NC(=O)CC3c1ccccc1Cl (stereo not drawn) > 50 µM
CC1=C(C(=O)OC(C)C)C(c2coc3ccccc3c2=O)C2=C(CCCC2=O)N1 (stereo not drawn) > 50 µM
